Source: paper PMC10461227, “Discovery of AD258 as a Sigma Receptor Ligand with Potent Antiallodynic Activity” (Journal of Medicinal Chemistry, 2023)
Values joined by “and” are separate entries in the source; they are usually repeats but may differ in a detail not shown here. Identical values can stand only once. Counter-ions that a name gives are not always drawn.

Key:
[1] = biological target: T1, S2R (Rattus norvegicus, UniProt Q5U3Y7); assay: S2R radioligand binding assay ([3H]DTG with (+)-pentazocine mask, rat liver homogenates)
T1 construct: liver homogenates from male Sprague Dawley rats; from tissue; host or cells: rat liver homogenate (male Sprague Dawley)
T1 sequence (Q5U3Y7 1-176): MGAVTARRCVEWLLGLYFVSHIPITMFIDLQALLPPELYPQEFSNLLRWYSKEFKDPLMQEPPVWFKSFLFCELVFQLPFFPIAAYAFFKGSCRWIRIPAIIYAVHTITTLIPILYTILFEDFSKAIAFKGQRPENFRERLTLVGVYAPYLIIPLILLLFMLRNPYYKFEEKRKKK

[2] = biological target: T2, S1R (Rattus norvegicus, UniProt Q9R0C9); assay: S1R radioligand binding assay ([3H]-(+)-pentazocine, rat liver homogenates); details: mean ± SD of at least two experiments in duplicate
T2 construct: liver homogenates from male Sprague Dawley rats; from tissue; host or cells: rat liver homogenate (male Sprague Dawley)
T2 sequence (Q9R0C9 whole entry): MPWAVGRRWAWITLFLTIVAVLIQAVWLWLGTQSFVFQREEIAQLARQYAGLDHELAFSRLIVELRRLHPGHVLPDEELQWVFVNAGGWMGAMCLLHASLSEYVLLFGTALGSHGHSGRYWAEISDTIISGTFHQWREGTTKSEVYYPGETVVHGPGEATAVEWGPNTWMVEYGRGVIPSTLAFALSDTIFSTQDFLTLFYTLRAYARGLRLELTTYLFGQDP

[3] = system: capsaicin-induced mechanical hypersensitivity (allodynia) in mice; assay: Capsaicin-induced mechanical hypersensitivity (allodynia) in mice; assay type: in vivo; details: for response latency to mechanical stimulation: 40 mg/kg s.c., non-sensitized 44.19 ± 2.59 s, capsaicin + solvent 13.51 ± 1.93 s, mean ± SEM; for antiallodynic effect on capsaicin-induced allodynia (in words): 30 min before capsaicin; for dose of maximum antiallodynic effect: capsaicin-induced mechanical hypersensitivity
Protocol: We tested the effect of several of our compounds in capsaicin-induced mechanical hypersensitivity (allodynia) in mice (Figure 5). The increase in pain sensitivity in the area surrounding capsaicin injection results from central sensitization, and this process plays a pivotal role in chronic pain development and maintenance.[29]
Experiments were performed in female WT-CD1 mice (Charles River, Barcelona, Spain) weighing 25–30 g. […] The behavioral test was conducted during the light phase (from 9:00 to 15:00 h) and randomly throughout the estrous cycle.
Drug solutions were prepared immediately before the start of the experiments and injected s.c. in a volume of 5 mL/kg into the interscapular area. […] To test for the effects of PRE-084 on the antiallodynia induced by the other drugs, it was administered 5 min before the latter. Capsaicin was dissolved in 1% DMSO in physiological sterile saline to a concentration of 0.05 μg/μL. […] Control animals were injected with the same volume of the vehicle of capsaicin.
Animals were placed for 2 h in individual black-walled test compartments, which were situated on an elevated mesh-bottom platform with a 0.5 cm^2 grid to provide access to the ventral surface of the hind paws. […] Briefly, a nonflexible filament (0.5 mm diameter) was electronically driven into the ventral side of the right hind paw at least 5 mm away from the site of the injection toward the fingers. The intensity of the stimulation was set at 0.5g force.[30] When a paw withdrawal response occurred, the stimulus was automatically terminated, and the response latency was recorded. The filament was applied three times, separated by intervals of 0.5 min. The mean value of the three trials was considered the withdrawal latency time of the animal. A cutoff time of 50 s was used in each trial.

[4] = system: human corneal epithelial cells (HCE); assay: MTT cell viability assay in HCE cells; details: 20 h incubation; for HCE cells cell viability reduction (MTT): 100 μM
[5] = system: human corneal epithelial cells (HCE); assay: LDH cytotoxicity assay in HCE cells; assay type: cell-based; details: 100 μM, 20 h incubation
Protocol: The permeability of cellular membranes following the exposures was determined by measuring the amount of released LDH (lactate dehydrogenase) enzyme from HCE cells. The commercial CytoTox 96 kit (Promega, Fitchburg, WI, USA) was used according to the manufacturer’s instructions. To measure maximal LDH release, 10 μL of 10× lysis solution was added to control wells 45 min before adding the CytoTox 96 reagent. To measure the amount of released LDH, 50 μL of each well was transferred to a fresh 96-well plate and 50 μL of CytoTox 96 reagent was added followed by a 30 min incubation period. Finally, 50 μL of stop solution was added and absorbance was recorded at 490 nm (Synergy H1 Hybrid Reader, BioTek, Winooski, VT, USA). Absorbance values were corrected by background values, and the percentage of LDH release was calculated using the following formula: 100 × experimental LDH release optical density (OD)/maximum LDH release OD.

[6] = Metabolic stability in mouse liver microsomes; assay type: in vitro ADME
Protocol: (§1) Moreover, in vitro metabolic studies were performed using mouse and human liver microsomes. Following incubation at 0.1 μM with the liver microsomes for 1 h, reaction samples were analyzed by LC–MS/MS at different time points (0, 15, 30, 45, 60 min).
(§2) In vitro metabolic stability studies were performed by Eurofins Cerep Quality Control Unit (France) using mouse and human liver microsomes fractions in accordance with their validation Standard Operating Procedure.

[7] = biological target: T3, human serotonin 5-HT2A receptor (Homo sapiens, UniProt P28223); assay: 5-HT2A receptor binding ([3H]Ketanserin)
T3 construct: host or cells: CHO-K1 cells
T3 sequence (P28223 whole entry): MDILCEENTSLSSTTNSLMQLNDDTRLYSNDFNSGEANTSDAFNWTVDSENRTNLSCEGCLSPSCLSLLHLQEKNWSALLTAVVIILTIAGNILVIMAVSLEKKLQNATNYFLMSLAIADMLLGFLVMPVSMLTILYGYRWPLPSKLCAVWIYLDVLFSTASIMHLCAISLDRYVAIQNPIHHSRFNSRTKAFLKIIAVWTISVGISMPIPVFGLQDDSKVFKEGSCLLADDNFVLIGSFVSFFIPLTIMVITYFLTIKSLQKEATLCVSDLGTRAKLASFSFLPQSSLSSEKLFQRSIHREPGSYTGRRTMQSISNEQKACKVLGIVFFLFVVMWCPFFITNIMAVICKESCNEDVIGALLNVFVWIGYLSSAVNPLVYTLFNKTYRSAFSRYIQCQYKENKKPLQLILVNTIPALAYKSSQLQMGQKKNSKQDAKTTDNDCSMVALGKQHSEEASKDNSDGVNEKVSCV

[8] = Human plasma stability; assay type: in vitro ADME; details: pH 7.4, 37 °C, read-out: plasma stability T1/2
[9] = Metabolic stability in human liver microsomes; assay type: in vitro ADME
Protocol: as §1, §2

[10] = Water solubility (UHPLC-PDA); assay type: physicochemical; details: free base, ultrapure water, rt
[11] = biological target: T4, human serotonin transporter (Homo sapiens, UniProt P31645); assay: SERT binding ([3H]Paroxetine)
T4 construct: host or cells: HEK-293 cells
T4 sequence (P31645 whole entry): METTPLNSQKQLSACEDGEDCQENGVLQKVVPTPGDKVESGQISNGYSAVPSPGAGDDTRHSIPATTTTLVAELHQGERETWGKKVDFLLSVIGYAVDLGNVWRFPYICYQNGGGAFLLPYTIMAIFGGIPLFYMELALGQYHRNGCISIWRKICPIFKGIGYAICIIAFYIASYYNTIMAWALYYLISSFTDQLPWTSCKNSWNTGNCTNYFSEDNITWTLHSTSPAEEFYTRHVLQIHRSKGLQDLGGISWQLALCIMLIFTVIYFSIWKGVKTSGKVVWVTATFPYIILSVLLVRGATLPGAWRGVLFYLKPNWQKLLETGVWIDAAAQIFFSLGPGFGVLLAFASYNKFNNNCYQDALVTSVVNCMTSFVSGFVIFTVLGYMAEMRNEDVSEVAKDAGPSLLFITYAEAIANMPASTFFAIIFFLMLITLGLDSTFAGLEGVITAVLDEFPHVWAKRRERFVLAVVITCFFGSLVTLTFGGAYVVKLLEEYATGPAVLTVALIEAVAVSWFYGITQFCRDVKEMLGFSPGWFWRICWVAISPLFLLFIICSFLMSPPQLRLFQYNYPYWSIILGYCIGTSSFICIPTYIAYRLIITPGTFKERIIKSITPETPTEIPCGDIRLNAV

[12] = Chemical stability in phosphate buffer pH 7.4; assay type: physicochemical; details: phosphate buffer pH 7.4, 37 °C; read-out: chemical stability T1/2
[13] = biological target: hERG (Homo sapiens, UniProt Q12809); assay: hERG activity (Qube APC electrophysiology, CHO-K1 cells expressing human ERG); assay type: cell-based; details: CHO-K1 cells that express human ERG, six concentrations 10^-10 to 10^-5 M
hERG, sequence (Q12809 whole entry): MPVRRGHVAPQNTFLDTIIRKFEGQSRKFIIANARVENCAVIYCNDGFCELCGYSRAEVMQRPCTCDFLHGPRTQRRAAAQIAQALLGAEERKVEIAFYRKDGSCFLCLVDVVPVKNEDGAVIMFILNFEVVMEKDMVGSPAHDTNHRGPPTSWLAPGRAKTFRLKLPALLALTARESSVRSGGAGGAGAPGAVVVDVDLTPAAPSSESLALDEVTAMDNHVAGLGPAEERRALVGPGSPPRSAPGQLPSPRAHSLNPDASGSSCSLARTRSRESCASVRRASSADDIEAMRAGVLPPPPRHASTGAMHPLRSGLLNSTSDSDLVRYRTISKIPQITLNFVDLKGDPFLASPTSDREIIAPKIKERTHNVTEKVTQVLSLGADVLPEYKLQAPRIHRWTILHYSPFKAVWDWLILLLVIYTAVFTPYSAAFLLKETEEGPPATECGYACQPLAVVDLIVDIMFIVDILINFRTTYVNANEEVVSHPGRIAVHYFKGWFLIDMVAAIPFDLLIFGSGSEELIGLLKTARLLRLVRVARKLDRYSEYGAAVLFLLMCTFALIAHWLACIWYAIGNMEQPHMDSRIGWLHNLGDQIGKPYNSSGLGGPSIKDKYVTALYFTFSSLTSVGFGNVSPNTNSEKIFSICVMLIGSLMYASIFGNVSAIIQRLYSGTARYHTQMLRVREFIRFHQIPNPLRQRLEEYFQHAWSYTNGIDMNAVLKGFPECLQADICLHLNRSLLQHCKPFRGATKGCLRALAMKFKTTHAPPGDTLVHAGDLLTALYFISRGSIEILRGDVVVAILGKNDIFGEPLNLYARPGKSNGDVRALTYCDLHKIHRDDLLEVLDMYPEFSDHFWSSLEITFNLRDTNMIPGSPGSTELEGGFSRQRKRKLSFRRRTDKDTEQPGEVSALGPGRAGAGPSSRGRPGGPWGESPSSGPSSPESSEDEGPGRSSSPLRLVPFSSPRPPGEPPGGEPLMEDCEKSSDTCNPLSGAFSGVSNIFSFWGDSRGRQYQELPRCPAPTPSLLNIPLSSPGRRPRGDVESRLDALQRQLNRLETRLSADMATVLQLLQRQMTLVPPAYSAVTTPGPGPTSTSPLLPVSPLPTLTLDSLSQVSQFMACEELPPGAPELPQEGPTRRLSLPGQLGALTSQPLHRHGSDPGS

[14] = biological target: T2, S1R; assay: S1R functional assay (radioligand binding with/without phenytoin, rat liver)
[15] = system: mice; assay: Rotarod test (motor coordination); assay type: in vivo; details: 9d 1.25 mg/kg s.c., pregabalin 60 mg/kg s.c.; 45-240 min after administration
Protocol: The rotarod test is the most standard test to assess motor function and coordination in rodents. It consists of a rotating rod where the animal is placed, and the latency to fall is measured. Drugs that negatively affect motor coordination decrease the latency to fall.[2]
Motor coordination was assessed with an accelerating rotarod (Cibertec, Madrid, Spain), as previously described.[34] Briefly, mice were required to walk against the motion of an elevated rotating drum at increasing speed (4–80 rpm over 5 min), and the latency to fall was recorded with a cut-off time of 300 s. Mice were given three training sessions 24 h before drug testing. On the day of the test, rotarod latencies were measured immediately before the drug or vehicle (saline 5% DMSO) was administered (time 0) and several times (45, 90, 150, and 240 min) after the s.c. drug administration. As a comparison drug, we used pregabalin (60 mg/kg, s.c.), which has been reported to impair rotarod performance.[34]

SMILES: CC(C)(C)OC(=O)N1CCC2(CCN(c3ccccc3)C2)C1 (stereo not shown) [6a, tert-Butyl-7-phenyl-2,7-diazaspiro[4.4]nonane-2-carboxylate]
- Ki [1]: 76.1 ± 1.2 nM
- Ki [2]: 40.7 ± 0.95 nM

SMILES: c1ccc(CCN2CCC3(CCN(c4ccccc4)C3)C2)cc1 (stereo not shown) [8a, 2-Phenethyl-7-phenyl-2,7-diazaspiro[4.4]nonane]
- response latency to mechanical stimulation [3]: 30.28 ± 5.02 s
- antiallodynic effect on capsaicin-induced allodynia (in words) ([3]; s.c.): dose-dependent antiallodynic effects
- dose of maximum antiallodynic effect ([3]; s.c.): 20 mg/kg
- HCE cells cell viability reduction (MTT) [4]: 50%
- HCE cells cytotoxicity (LDH release) [5]: 16%

SMILES: O=[N+]([O-])c1ccc(N2CCC3(CCN(CCc4ccccc4)C3)C2)cc1 (stereo not shown) [9a, 2-(4-Nitrophenyl)-7-phenethyl-2,7-diazaspiro[4.4]nonane]
- dose from which significant antiallodynic effects are seen ([3]; s.c.): 5 mg/kg
- antiallodynic effect on capsaicin-induced allodynia (in words) ([3]; s.c.): dose-dependent and full reversal of capsaicin-induced allodynia
- dose of maximum antiallodynic effect ([3]; s.c.): 10 mg/kg
- HCE cells cytotoxicity (LDH release) [5]: 23%

SMILES: N#Cc1ccc(N2CCC3(CCN(CCc4ccccc4)C3)C2)cc1 (stereo not shown) [9d, 4-(7-Phenethyl-2,7-diazaspiro[4.4]nonan-2-yl)benzonitrile]
- microsomal CLint at 1 h, 0.1 µM ([6]; 1 h incubation): 124 µL/min/mg
- half-life at 1 h, 0.1 µM ([6]; 1 h incubation, read-out: mouse liver microsomes T1/2): 56 min
- half-life at 0.1 μM ([6]; read-out: mouse liver microsomes metabolic half-time (T1/2) (converted)): ~60 min
- inhibition at 1 µM [7]: < 50%
- 5-HT2A % inhibition ([7]; at 1 μM): 42%
- effect of PRE-084 on the antiallodynic effect of the compound ([3]; PRE-084 32 mg/kg s.c. given 5 min before the compound at its dose of maximum effect): fully reversed
- antiallodynic effect on capsaicin-induced allodynia (in words) ([3]; s.c.): dose-dependent and full reversal of capsaicin-induced allodynia
- half-life [8]: > 1440 min
- microsomal CLint at 1 h, 0.1 µM ([9]; 1 h incubation): 127 µL/min/mg
- half-life at 1 h, 0.1 µM ([9]; 1 h incubation, read-out: human liver microsomes T1/2): 55 min
- half-life at 0.1 μM ([9]; read-out: human liver microsomes metabolic half-time (T1/2) (converted)): ~60 min
- solubility at 24 h [10]: 710 µg/mL and 2140 µM
- inhibition at 1 µM [11]: < 50%
- SERT % inhibition ([11]; at 1 μM): 39%
- half-life [12]: > 1440 min
- IC50 [13]: 85 nM
- S1R functional profile [14]: antagonist
- HCE cells cell viability reduction (MTT) [4]: 28%
- HCE cells cytotoxicity (LDH release) [5]: 18%
- latency to fall from the rotarod (in words) [15]: no change in the latency to fall

SMILES: c1ccc(CCN2CCC3(CCN(CCc4ccccc4)C3)C2)cc1 [14a, 2,7-Diphenethyl-2,7-diazaspiro[4.4]nonane]
- response latency to mechanical stimulation [3]: 26.55 ± 3.55 s
- antiallodynic effect on capsaicin-induced allodynia (in words) ([3]; s.c.): dose-dependent antiallodynic effects
- dose of maximum antiallodynic effect ([3]; s.c.): 20 mg/kg
- HCE cells cell viability reduction (MTT) [4]: 56%
- HCE cells cytotoxicity (LDH release) [5]: 13%

SMILES: O=C(Cc1ccc(Cl)c(Cl)c1)N1CCC2(CCN(CCc3ccccc3)C2)C1 (stereo not shown) [15a, 2-(3,4-Dichlorophenyl)-1-(7-phenethyl-2,7-diazaspiro[4.4]nonan-2-yl)ethan-1-one]
- antiallodynic effect on capsaicin-induced allodynia (in words) ([3]; s.c.): dose-dependent and full antiallodynic effect
- dose of maximum antiallodynic effect ([3]; s.c.): 40 mg/kg
- Ki [2]: 7.5 ± 1 nM

SMILES: CN1CCN(CCc2ccc(Cl)c(Cl)c2)CC1 [BD1063, 1-[2-(3,4-dichlorophenyl)ethyl]-4-methylpiperazine dihydrochloride, reference compound]
- Ki [2]: 14 ± 2.7 nM

SMILES: Cl.O=C(OCCN1CCOCC1)C1(c2ccccc2)CCCCC1 [PRE-084, reference compound]
- HCE cells cell viability reduction (MTT) [4]: 58%
- concentration above which cell viability is statistically significantly reduced (MTT) ([4]; HCE cells): above 20 μM

SMILES: CC(C)C[C@H](CN)CC(=O)O [pregabalin, reference compound]
- latency to fall from the rotarod (in words) [15]: markedly reduced rotarod latencies
